Assay results as given in ChEMBL document CHEMBL5518163, “Brazilin-7-acetate, a novel potential drug of Parkinson's disease, hinders the formation of α-synuclein fibril, mitigates cytotoxicity, and decreases oxidative stress” (Eur J Med Chem, 2024).
Active and inactive are the calls of the source. No cut-off for these calls is given here.

Key:
Caenorhabditis elegans [1] = assay: Antioxidant activity against transgenic Caenorhabditis elegans NL5901 expressing YFP-tagged alpha-synuclein assessed as increase in lipid content relative to control; assay type: functional
Caenorhabditis elegans [2] = assay: Antioxidant activity against transgenic Caenorhabditis elegans NL5901 expressing YFP-tagged alpha-synuclein assessed as decrease in MDA content relative to control; assay type: functional; design: scale not given: the % may be the effect or the level left
Caenorhabditis elegans [3] = assay: Antioxidant activity against transgenic Caenorhabditis elegans NL5901 expressing YFP-tagged alpha-synuclein assessed as increase in GSH-PX activity at 100 uM incubated for 5 days (reference value: 46.36 %); assay type: functional; settings: time 5 day
Caenorhabditis elegans [4] = assay: Improvement in life span of transgenic Caenorhabditis elegans NL5901 expressing YFP-tagged alpha-synuclein assessed as increase in average lifespan at 100 uM (reference value: 8.52 day); assay type: functional; settings: time 5 day
Caenorhabditis elegans [5] = assay: Improvement in life span of transgenic Caenorhabditis elegans NL5901 expressing YFP-tagged alpha-synuclein assessed as decrease in death rate at 100 uM incubated for 5 days; assay type: functional, organism-based; settings: time 5.0 day
PC-12 [6] = assay: Protection against alpha-synuclein induced rat PC12 cells death assessed as survival rate at alpha-synuclein to compound molar ratio 1:2 pre-incubated with alpha-synuclein for 10 days followed by cell addition and measured after 48 hrs by MTT assay (reference value: 58.07%); assay type: functional
Caenorhabditis elegans [7] = assay: In vivo inhibition of alpha-synuclein aggregation in transgenic Caenorhabditis elegans NL5901 expressing YFP-tagged alpha-synuclein at 100 uM under L4 stage to adult stage on day 5 and 10 by fluorescence based confocal microscope analysis; assay type: functional; settings: time 5.0 day
Caenorhabditis elegans [8] = assay: Antioxidant activity against transgenic Caenorhabditis elegans NL5901 expressing YFP-tagged alpha-synuclein assessed as decrease in MDA content at 100 uM incubated for 5 days (reference value: 288.94 %); assay type: functional; design: scale not given: the % may be the effect or the level left; settings: time 5 day
PC-12 [9] = assay: Protection against alpha-synuclein induced rat PC12 cells death assessed as survival rate at alpha-synuclein to compound molar ratio 1:1 pre-incubated with alpha-synuclein for 10 days followed by cell addition and measured after 48 hrs by MTT assay (reference value: 58.07%); assay type: functional
Caenorhabditis elegans [10] = assay: Improvement in life span of transgenic Caenorhabditis elegans NL5901 expressing YFP-tagged alpha-synuclein assessed as increase in lifespan at 100 uM (reference value: 16 day); assay type: functional; settings: time 5 day
Caenorhabditis elegans [11] = assay: Improvement in movement disorder in transgenic Caenorhabditis elegans NL5901 expressing YFP-tagged alpha-synuclein assessed as increase in number of bends at 100 uM measured on day 5 (reference value: 29.5); assay type: functional; settings: time 5 day
Caenorhabditis elegans [12] = assay: Antioxidant activity in transgenic Caenorhabditis elegans NL5901 expressing YFP-tagged alpha-synuclein assessed as increase in SOD activity at 100 uM incubated for 5 days (reference value: 33.32 %); assay type: functional; settings: time 5 day
Caenorhabditis elegans [13] = assay: Inhibition of oxidative stress in Caenorhabditis elegans NL5901 expressing YFP-tagged alpha-synuclein assessed as decrease in ROS level by measuring average fluorescence intensity at 100 uM incubated for 5 days by DHE staining based confocal laser scanning microscope analysis (reference value: 1600%); assay type: functional; design: scale not given: the % may be the effect or the level left; settings: time 5 day
[14] = In vivo inhibition of alpha-synuclein aggregation in transgenic Caenorhabditis elegans NL5901 expressing YFP-tagged alpha-synuclein assessed as quantity of plaques at 100 uM on day 10 by fluorescence based confocal microscope analysis (reference value: 31.5); assay type: functional; settings: time 5 day
[15] = In vivo inhibition of alpha-synuclein aggregation in transgenic Caenorhabditis elegans NL5901 expressing YFP-tagged alpha-synuclein assessed as quantity of plaques at 100 uM on day 5 by fluorescence based confocal microscope analysis (reference value: 24.7); assay type: functional; settings: time 5 day
PC-12 [16] = assay: Cytotoxicity against rat PC12 cells assessed as survival rate at 25 uM incubated for 10 days by MTT assay relative to control; assay type: functional; settings: time 10 day
Caenorhabditis elegans [17] = assay: Inhibition of oxidative stress in transgenic Caenorhabditis elegans NL5901 expressing YFP-tagged alpha-synuclein assessed as reduction in ROS level by measuring fluorescence intensity at 100 uM incubated for 5 days by DHE staining based confocal laser scanning microscope analysis; assay type: functional, organism-based; settings: time 5.0 day
Caenorhabditis elegans [18] = assay: Improvement in movement disorder in transgenic Caenorhabditis elegans NL5901 expressing YFP-tagged alpha-synuclein assessed as increase in number of bends at 100 uM measured on day 10 (reference value: 11.1); assay type: functional; settings: time 5 day
PC-12 [19] = assay: Cytotoxicity against rat PC12 cells assessed as survival rate at 100 uM incubated for 10 days by MTT assay relative to control; assay type: functional; settings: time 10 day
PC-12 [20] = assay: Protection against alpha-synuclein induced rat PC12 cells death assessed as survival rate at alpha-synuclein to compound molar ratio 1:0.5 pre-incubated with alpha-synuclein for 10 days followed by cell addition and measured after 48 hrs by MTT assay (reference value: 58.07%); assay type: functional
Caenorhabditis elegans [21] = assay: Antioxidant activity against transgenic Caenorhabditis elegans NL5901 expressing YFP-tagged alpha-synuclein assessed as increase in lipid content by measuring fluorescence intensity at 100 uM incubated for 5 days by Nile Red staining based confocal laser scanning microscope analysis (reference value: 41.32 %); assay type: functional; settings: time 5 day
PC-12 [22] = assay: Cytotoxicity against rat PC12 cells assessed as survival rate at 50 uM incubated for 10 days by MTT assay relative to control; assay type: functional; settings: time 10 day
Caenorhabditis elegans [23] = assay: In vivo inhibition of alpha-synuclein aggregation in transgenic Caenorhabditis elegans NL5901 expressing YFP-tagged alpha-synuclein assessed as reduction in number of alpha-synuclein aggregates plaques at 100 uM incubated for 5 days by fluorescence based confocal microscope analysis; assay type: functional; settings: time 5.0 day
PC-12 [24] = assay: Cytotoxicity against rat PC12 cells assessed as survival rate at 50 to 100 uM incubated for 10 days by MTT assay relative to control; assay type: functional; settings: dose 50-100 µM, time 10 day
[25] = target: Alpha-synuclein (Homo sapiens) (UniProt P37840); assay: Inhibition of recombinant alpha-synuclein (unknown origin) fibrillation at 1 to 20 uM measured after 30 mins by ThT fluorescence based spectrofluorometer analysis relative to control; settings: dose 1-20 µM

**Q.** What does the source list for O=C(/C=C/c1ccc(O)c(O)c1)O[C@@H]1C[C@](O)(C(=O)O)C[C@@H](O)[C@H]1O [CHLOROGENIC ACID]?
**A.** Activity (Caenorhabditis elegans [1]): ~5%; Activity (Caenorhabditis elegans [2]): ~50%

**Q.** Which results are given for CC(=O)Oc1ccc2c(c1)OC[C@]1(O)Cc3cc(O)c(O)cc3[C@H]21?
**A.** Activity (Caenorhabditis elegans [3]): 81.81%; ILS (Caenorhabditis elegans [4]): 10.35 days; Activity (Caenorhabditis elegans [5]): Active; Activity (PC-12 [6]): 93.51%; inhibition (Caenorhabditis elegans [7]): Active; Activity (Caenorhabditis elegans [8]): 133%; Activity (PC-12 [9]): 85.21%; ILS (Caenorhabditis elegans [10]): 19 days; Activity (Caenorhabditis elegans [11]): 8.4; Activity (Caenorhabditis elegans [12]): 60%; Activity (Caenorhabditis elegans [13]): 723.6%; Activity [14]: 16.2; Activity [15]: 7.2; Activity (PC-12 [16]): 82.15%; Activity (Caenorhabditis elegans [17]): Active; Activity (Caenorhabditis elegans [18]): 7.6; Activity (PC-12 [19]): 60.46%; Activity (PC-12 [20]): 72.26%; Activity (Caenorhabditis elegans [21]): 57.69%; Activity (PC-12 [22]): 66.74%; inhibition (Caenorhabditis elegans [23]): Active

**Q.** What does the source list for Oc1ccc2c(c1)OC[C@]1(O)Cc3cc(O)c(O)cc3[C@H]21 [BRAZILIN]?
**A.** Activity (PC-12 [24]): ~20%; Activity (PC-12 [16]): 82.15%; Activity (PC-12 [19]): 60.46%; Activity (PC-12 [22]): 66.74%

**Q.** For COc1ccc(-c2coc3cc(O)ccc3c2=O)cc1O, which inhibition [25] is on record?
**A.** 82.3%
